Experiments:
U2932 = experiment: Induction of apoptosis in human U2932 cells assessed as induction of PARP cleavage after 48 hrs by immunoblot; assay type: functional, cell-based
[1] = system: Tyrosine-protein kinase ABL1 (Homo sapiens), P00519 [H396P]; experiment: Inhibition of human non-phosphorylated ABL1 H396P mutant (S229 to K512 residues) expressed in mammalian expression system assessed as residual activity at 1 uM by Kinomescan method relative to control
[2] = target: Calcium/calmodulin-dependent protein kinase type II subunit delta (Homo sapiens) (UniProt Q13557); experiment: Inhibition of wild-type human partial length CAMK2D (M1 to E329 residues) expressed in bacterial expression system assessed as residual activity at 1 uM by Kinomescan method relative to control
[3] = target: Cyclin-dependent kinase 19 (Homo sapiens) (UniProt Q9BWU1); experiment: Inhibition of wild-type human partial length CDK11 (M1 to N360 residues) expressed in bacterial expression system assessed as residual activity at 1 uM by Kinomescan method relative to control
[4] = target: Casein kinase I isoform epsilon (Homo sapiens) (UniProt P49674); experiment: Inhibition of wild-type human full length CSNK1E (M1 to K416 residues) expressed in bacterial expression system assessed as residual activity at 1 uM by Kinomescan method relative to control
[5] = target: Death-associated protein kinase 3 (Homo sapiens) (UniProt O43293); experiment: Inhibition of wild-type human partial length DAPK3 (M1 to A277 residues) expressed in bacterial expression system assessed as residual activity at 1 uM by Kinomescan method relative to control
[6] = target: Serine/threonine-protein kinase 17B (Homo sapiens) (UniProt O94768); experiment: Inhibition of wild-type human full length DRAK2 (M1 to C372 residues) expressed in bacterial expression system assessed as residual activity at 1 uM by Kinomescan method relative to control
[7] = target: Dual specificity tyrosine-phosphorylation-regulated kinase 1A (Homo sapiens) (UniProt Q13627); experiment: Inhibition of wild-type human partial length DYRK1A (H129 to S509 residues) expressed in mammalian expression system assessed as residual activity at 1 uM by Kinomescan method relative to control
[8] = target: Receptor tyrosine-protein kinase erbB-2 (Homo sapiens) (UniProt P04626); experiment: Inhibition of wild-type human partial length ERBB2 (K646 to V1225 residues) expressed in mammalian expression system assessed as residual activity at 1 uM by Kinomescan method relative to control
[9] = system: Receptor-type tyrosine-protein kinase FLT3 (Homo sapiens), P36888 [K663Q]; experiment: Inhibition of human partial length FLT3 K663Q mutant (V592 to Y969 residues) expressed in bacterial expression system assessed as residual activity at 1 uM by Kinomescan method relative to control
[10] = target: Homeodomain-interacting protein kinase 3 (Homo sapiens) (UniProt Q9H422); experiment: Inhibition of wild-type human partial length HIPK3 (M153 to N562 residues) expressed in mammalian expression system assessed as residual activity at 1 uM by Kinomescan method relative to control
[11] = target: Insulin-like growth factor 1 receptor (Homo sapiens) (UniProt P08069); experiment: Inhibition of wild-type human partial length IGF1R (L972 to D1294 residues) expressed in bacterial expression system assessed as residual activity at 1 uM by Kinomescan method relative to control
[12] = target: Mitogen-activated protein kinase kinase kinase 4 (Homo sapiens) (UniProt Q9Y6R4); experiment: Inhibition of wild-type human partial length MAP3K4 (G1319 to E1608 residues) expressed in bacterial expression system assessed as residual activity at 1 uM by Kinomescan method relative to control
[13] = target: Dual specificity mitogen-activated protein kinase kinase 4 (Homo sapiens) (UniProt P45985); experiment: Inhibition of wild-type human partial length MEK4 (S84 to D399 residues) expressed in mammalian expression system assessed as residual activity at 1 uM by Kinomescan method relative to control
[14] = target: Tyrosine-protein kinase Mer (Homo sapiens) (UniProt Q12866); experiment: Inhibition of wild-type human partial length MERTK (R557 to L884 residues) expressed in bacterial expression system assessed as residual activity at 1 uM by Kinomescan method relative to control
[15] = target: Misshapen-like kinase 1 (Homo sapiens) (UniProt Q8N4C8); experiment: Inhibition of wild-type human partial length MINK (M1 to K312 residues) expressed in mammalian expression system assessed as residual activity at 1 uM by Kinomescan method relative to control
[16] = target: Serine/threonine-protein kinase PAK 4 (Homo sapiens) (UniProt O96013); experiment: Inhibition of wild-type human partial length PAK4 (Q144 to R438 residues) expressed in bacterial expression system assessed as residual activity at 1 uM by Kinomescan method relative to control
[17] = target: Calcium-dependent protein kinase 1 (Plasmodium falciparum) (UniProt P62344); experiment: Inhibition of wild-type Plasmodium falciparum isolate 3D7 full length CDPK1 (M1 to S524 residues) expressed in mammalian expression system assessed as residual activity at 1 uM by Kinomescan method relative to control
[18] = target: Protein kinase C iota type (Homo sapiens) (UniProt P41743); experiment: Inhibition of wild-type human partial length PRKCI (H215 to V587 residues) expressed in mammalian expression system assessed as residual activity at 1 uM by Kinomescan method relative to control
[19] = target: cGMP-dependent protein kinase 1 (Homo sapiens) (UniProt Q13976); experiment: Inhibition of wild-type human partial length PRKG1 (L339 to F686 residues) expressed in bacterial expression system assessed as residual activity at 1 uM by Kinomescan method relative to control
[20] = target: Ribosomal protein S6 kinase alpha-3 (Homo sapiens) (UniProt P51812); experiment: Inhibition of wild-type human partial length N-terminal RSK2 kinase domain 1 (M1 to D394 residues) expressed in mammalian expression system assessed as residual activity at 1 uM by Kinomescan method relative to control
[21] = target: Ribosomal protein S6 kinase alpha-2 (Homo sapiens) (UniProt Q15349); experiment: Inhibition of wild-type human partial length N-terminal RSK3 kinase domain 1 (M1 to Q385 residues) expressed in bacterial expression system assessed as residual activity at 1 uM by Kinomescan method relative to control
[22] = target: Serine/threonine-protein kinase 36 (Homo sapiens) (UniProt Q9NRP7); experiment: Inhibition of wild-type human partial length STK36 (M1 to T271 residues) expressed in bacterial expression system assessed as residual activity at 1 uM by Kinomescan method relative to control
[23] = target: Mitogen-activated protein kinase kinase kinase 7 (Homo sapiens) (UniProt O43318); experiment: Inhibition of wild-type human partial length TAK1 (M1 to Q303 residues) expressed in mammalian expression system assessed as residual activity at 1 uM by Kinomescan method relative to control
[24] = target: NT-3 growth factor receptor (Homo sapiens) (UniProt Q16288); experiment: Inhibition of wild-type human partial length TRKC (Q531 to G825 residues) expressed in mammalian expression system assessed as residual activity at 1 uM by Kinomescan method relative to control

Sequence of Receptor tyrosine-protein kinase erbB-2 (Homo sapiens) (P04626 whole entry, the tested form may be a part): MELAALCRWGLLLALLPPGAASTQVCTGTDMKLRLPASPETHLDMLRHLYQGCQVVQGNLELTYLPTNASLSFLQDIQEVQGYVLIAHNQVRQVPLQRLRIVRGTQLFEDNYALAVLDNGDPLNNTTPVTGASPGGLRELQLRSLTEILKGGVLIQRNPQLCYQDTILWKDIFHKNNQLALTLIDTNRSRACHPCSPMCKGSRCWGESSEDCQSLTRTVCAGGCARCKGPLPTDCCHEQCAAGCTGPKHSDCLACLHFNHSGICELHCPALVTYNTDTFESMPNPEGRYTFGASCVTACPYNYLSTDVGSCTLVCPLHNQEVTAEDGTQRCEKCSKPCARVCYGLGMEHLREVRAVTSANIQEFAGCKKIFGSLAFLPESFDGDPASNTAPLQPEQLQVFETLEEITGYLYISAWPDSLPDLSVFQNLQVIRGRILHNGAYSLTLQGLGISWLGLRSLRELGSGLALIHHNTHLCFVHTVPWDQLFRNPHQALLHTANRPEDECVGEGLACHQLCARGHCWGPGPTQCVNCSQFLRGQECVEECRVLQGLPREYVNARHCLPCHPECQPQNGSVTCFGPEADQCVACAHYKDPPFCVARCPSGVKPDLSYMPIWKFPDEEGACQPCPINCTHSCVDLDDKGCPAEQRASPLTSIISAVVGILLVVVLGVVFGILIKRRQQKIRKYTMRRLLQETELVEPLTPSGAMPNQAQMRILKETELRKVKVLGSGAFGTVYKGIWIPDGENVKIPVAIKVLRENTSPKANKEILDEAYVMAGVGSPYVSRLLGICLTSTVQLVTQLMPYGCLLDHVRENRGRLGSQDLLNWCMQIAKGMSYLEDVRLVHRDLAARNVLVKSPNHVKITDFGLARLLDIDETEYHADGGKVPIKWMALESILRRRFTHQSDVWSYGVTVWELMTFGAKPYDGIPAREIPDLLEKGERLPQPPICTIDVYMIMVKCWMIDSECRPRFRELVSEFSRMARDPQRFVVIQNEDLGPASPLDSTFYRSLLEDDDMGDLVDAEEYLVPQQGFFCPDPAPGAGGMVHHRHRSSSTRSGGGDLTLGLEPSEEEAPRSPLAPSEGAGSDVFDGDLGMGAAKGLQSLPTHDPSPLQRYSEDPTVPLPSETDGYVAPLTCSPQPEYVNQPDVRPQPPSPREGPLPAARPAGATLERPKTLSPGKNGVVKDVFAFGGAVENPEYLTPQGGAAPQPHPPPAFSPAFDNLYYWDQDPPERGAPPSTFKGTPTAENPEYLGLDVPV
Sequence of Protein kinase C iota type (Homo sapiens) (P41743 whole entry, the tested form may be a part): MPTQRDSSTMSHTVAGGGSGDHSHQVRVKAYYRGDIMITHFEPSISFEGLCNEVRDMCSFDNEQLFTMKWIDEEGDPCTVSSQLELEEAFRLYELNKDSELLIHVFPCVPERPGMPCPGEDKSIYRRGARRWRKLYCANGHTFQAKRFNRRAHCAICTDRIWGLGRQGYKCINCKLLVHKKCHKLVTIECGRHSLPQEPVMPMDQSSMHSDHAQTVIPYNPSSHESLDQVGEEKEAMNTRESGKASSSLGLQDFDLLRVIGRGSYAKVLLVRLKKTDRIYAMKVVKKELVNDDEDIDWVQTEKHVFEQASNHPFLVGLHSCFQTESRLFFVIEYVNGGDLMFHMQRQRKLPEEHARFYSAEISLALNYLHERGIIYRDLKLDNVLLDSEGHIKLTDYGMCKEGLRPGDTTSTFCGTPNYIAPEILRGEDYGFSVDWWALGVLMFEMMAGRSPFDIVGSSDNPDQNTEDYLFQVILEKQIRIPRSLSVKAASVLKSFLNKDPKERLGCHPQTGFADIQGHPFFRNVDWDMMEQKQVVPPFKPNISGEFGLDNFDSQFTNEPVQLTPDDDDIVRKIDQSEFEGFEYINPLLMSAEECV
Sequence of Ribosomal protein S6 kinase alpha-2 (Homo sapiens) (Q15349 whole entry, the tested form may be a part): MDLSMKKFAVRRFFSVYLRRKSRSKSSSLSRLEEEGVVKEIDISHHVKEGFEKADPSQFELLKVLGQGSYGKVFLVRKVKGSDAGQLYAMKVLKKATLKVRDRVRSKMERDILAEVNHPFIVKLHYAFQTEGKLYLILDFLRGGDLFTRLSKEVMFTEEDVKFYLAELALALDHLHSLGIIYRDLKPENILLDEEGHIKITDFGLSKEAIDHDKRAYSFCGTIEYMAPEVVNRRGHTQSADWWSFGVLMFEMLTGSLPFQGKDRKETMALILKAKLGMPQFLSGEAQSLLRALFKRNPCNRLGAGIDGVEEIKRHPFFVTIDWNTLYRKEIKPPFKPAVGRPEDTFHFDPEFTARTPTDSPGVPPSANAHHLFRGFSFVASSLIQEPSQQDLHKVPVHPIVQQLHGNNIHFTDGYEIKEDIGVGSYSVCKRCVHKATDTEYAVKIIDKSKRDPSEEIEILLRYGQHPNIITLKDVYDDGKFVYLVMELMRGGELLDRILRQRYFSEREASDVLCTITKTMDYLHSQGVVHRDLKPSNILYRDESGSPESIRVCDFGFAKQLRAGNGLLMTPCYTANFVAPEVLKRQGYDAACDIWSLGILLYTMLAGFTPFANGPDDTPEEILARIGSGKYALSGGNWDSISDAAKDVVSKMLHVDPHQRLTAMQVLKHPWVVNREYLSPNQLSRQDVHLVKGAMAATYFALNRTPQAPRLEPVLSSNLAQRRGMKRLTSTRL
Sequence of Misshapen-like kinase 1 (Homo sapiens) (Q8N4C8 whole entry, looked up, the tested form may be a part): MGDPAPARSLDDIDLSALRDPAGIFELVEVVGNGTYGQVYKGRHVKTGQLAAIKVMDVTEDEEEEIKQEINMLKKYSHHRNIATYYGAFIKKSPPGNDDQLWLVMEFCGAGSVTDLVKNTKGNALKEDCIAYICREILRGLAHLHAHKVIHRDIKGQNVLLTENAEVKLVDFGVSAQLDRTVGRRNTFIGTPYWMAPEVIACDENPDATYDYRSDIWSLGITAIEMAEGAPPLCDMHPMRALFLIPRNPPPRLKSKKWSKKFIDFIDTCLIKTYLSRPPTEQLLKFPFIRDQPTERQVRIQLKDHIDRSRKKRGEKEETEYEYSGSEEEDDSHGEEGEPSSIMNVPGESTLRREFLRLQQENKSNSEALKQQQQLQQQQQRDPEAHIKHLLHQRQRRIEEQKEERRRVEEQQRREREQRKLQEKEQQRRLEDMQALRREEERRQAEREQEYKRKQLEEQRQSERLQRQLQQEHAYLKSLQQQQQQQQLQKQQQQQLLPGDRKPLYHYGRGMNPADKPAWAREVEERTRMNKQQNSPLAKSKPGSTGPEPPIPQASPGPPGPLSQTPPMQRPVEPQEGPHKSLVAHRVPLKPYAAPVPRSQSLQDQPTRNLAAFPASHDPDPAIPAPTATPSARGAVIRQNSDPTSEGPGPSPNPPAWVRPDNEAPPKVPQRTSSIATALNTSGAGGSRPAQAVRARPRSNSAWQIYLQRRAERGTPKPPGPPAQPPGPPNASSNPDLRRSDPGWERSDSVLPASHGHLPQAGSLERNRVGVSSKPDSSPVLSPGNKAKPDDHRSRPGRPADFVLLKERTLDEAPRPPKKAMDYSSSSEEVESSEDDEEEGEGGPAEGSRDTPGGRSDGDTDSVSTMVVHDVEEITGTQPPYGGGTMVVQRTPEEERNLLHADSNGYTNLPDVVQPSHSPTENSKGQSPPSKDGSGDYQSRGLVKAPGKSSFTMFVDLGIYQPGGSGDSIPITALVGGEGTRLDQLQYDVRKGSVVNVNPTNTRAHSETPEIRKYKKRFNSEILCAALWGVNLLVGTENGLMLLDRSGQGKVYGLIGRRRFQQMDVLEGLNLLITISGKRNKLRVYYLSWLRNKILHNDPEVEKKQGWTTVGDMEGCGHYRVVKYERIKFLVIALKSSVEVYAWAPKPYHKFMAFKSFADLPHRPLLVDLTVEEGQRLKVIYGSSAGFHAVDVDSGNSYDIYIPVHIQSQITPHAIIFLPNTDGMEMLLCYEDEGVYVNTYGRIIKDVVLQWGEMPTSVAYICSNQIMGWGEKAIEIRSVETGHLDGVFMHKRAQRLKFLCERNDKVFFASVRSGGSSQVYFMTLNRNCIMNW
Sequence of Tyrosine-protein kinase Mer (Homo sapiens) (Q12866 whole entry, the tested form may be a part): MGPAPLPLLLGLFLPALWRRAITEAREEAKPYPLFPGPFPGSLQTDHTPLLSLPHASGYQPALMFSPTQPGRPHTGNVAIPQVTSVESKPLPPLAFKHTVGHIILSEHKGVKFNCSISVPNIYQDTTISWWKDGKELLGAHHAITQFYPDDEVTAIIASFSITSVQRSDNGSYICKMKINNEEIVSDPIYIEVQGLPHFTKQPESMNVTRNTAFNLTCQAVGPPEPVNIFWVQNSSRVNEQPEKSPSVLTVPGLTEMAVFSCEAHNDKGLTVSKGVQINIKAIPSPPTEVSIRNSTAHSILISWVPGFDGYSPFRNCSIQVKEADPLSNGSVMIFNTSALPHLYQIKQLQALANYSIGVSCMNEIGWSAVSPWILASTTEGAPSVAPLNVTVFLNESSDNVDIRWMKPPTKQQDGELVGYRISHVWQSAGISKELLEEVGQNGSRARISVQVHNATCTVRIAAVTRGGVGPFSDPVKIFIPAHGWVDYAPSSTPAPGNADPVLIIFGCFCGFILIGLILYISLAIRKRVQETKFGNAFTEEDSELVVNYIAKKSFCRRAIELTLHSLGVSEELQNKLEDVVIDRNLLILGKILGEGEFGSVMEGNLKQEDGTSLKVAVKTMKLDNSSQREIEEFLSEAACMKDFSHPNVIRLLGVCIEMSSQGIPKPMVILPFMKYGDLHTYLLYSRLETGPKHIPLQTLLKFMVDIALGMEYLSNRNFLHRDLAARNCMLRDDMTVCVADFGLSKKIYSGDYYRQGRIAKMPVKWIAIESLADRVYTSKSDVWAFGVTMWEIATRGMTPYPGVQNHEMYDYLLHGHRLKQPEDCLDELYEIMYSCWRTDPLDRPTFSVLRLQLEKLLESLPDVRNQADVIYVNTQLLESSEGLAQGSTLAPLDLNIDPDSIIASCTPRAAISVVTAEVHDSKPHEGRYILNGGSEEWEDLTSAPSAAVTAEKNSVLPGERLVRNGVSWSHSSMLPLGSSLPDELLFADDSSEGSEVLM

**Q.** Which results are given for `C=CC(=O)Nc1cc(Nc2cc(-c3cccc(NC(=O)c4ccc(C(C)(C)C)cc4)c3C)cn(C)c2=O)ccc1C(=O)N1CCOCC1`?
**A.** Activity (U2932): Dose-dependent effect; Activity [1]: 100%; Activity [2]: 100%; Activity [3]: 100%; Activity [4]: 100%; Activity [5]: 100%; Activity [6]: 94%; Activity [7]: 100%; Activity [8]: 97%; Activity [9]: 94%; Activity [10]: 100%; Activity [11]: 92%; Activity [12]: 89%; Activity [13]: 86%; Activity [14]: 100%; Activity [15]: 82%; Activity [16]: 94%; Activity [17]: 85%; Activity [18]: 100%; Activity [19]: 95%; Activity [20]: 100%; Activity [21]: 92%; Activity [22]: 93%; Activity [23]: 89%; Activity [24]: 76%
